Assay results from patent US8802664B2 (Bioproject, priority 2010, dated 2014).

What follows are compounds tested against T1, human H4 receptor (Homo sapiens, UniProt Q9H3N8) (assay: [3H]Histamine binding on membranes of CHO cells stably expressing human H4 receptor).
T1 construct: expressed in transfected cells
Protocol: CHO cells stably expressing human H4 receptor were grown until sub-confluence and centrifuged at 300 g 15 minutes at 4° C. Pellets were resuspended in buffer I Tris-HCl 50 mM, MgCl2 10 mM, NaCl 140 mM, pH=7.4 supplemented by a 1/50 dilution of a mix of protease inhibitors. The obtained suspension is stirred gently and submitted to a […] exerted through a syringe. The cell lysate is then centrifuged at 300 g 15 minutes at 4° C. in order to eliminate nucleus and cell scraps. The obtained supernatant was then centrifuged at 48000 g for 30 minutes at 4° C. The final pellet is resuspended in buffer I with a potter homogenizer. Aliquots were frozen in liquid nitrogen and stored until use at −80° C. Protein content is measured by the Bradford method.
Defreezed membranes were diluted at a final concentration of 20 μg/180 μL/well in a binding buffer containing 50 mM Tris/HCl, 0.5 mM EDTA, pH=7.4 and distributed in 96 well polystyrene microplate. [^3H] […] Non specific binding was estimated in the presence of 10 μM BP1.2404 (JNJ 7777120). The reaction was terminated by filtration through GF/B filters pre-soaked 2 hours at 4° C. in […]. Filters were rinsed 3 times with 250 μl of ice cold incubation binding buffer.
The filter-bound radioactivity was measured in a liquid scintillation counter Microbeta TRILUX® with 50 μl of scintillation fluid.
The hH4 binding investigated by use of [^3H]

| Ki or IC50 activity class [nM] | SMILES |
| --- | --- |
| < 300 | CCCCc1cccc(C(OC2CCN(C)CC2)c2nc3ccccc3s2)c1 (stereo not shown) [Example 80, 2-[(3-butylphenyl)(1-methylpiperidin-4-yloxy)methyl]benzothiazole] |
| < 300 | CN1CCC(OC(c2cccc(-c3ccccc3)c2)c2nc3ccccc3[nH]2)CC1 (stereo not shown) [Example 81, 2-[biphenyl-3-yl(1-methylpiperidin-4-yloxy)methyl]-1H-benzimidazole] |
| < 300 | CN1CCC(NC(c2cccc(Oc3ccccc3)c2)c2nc3ccccc3[nH]2)CC1 (stereo not shown) [Example 85, [(1H-benzimidazol-2-yl)(3-phenoxyphenyl)methyl](1-methylpiperidin-4-yl)amine] |
| < 300 | CN1CCC(OC(c2cccc(-c3cccc(CO)c3)c2)c2nc3ccccc3[nH]2)CC1 (stereo not shown) [Example 86, {3′-[(1H-benzimidazol-2-yl)(1-methylpiperidin-4-yloxy)methyl]biphenyl-3-yl}methanol] |
| < 300 | CN1CCC(OC(c2cccc(-c3cccc(N)c3)c2)c2nc3ccccc3[nH]2)CC1 (stereo not shown) [Example 87, 3′-[(1H-benzimidazol-2-yl)(1-methylpiperidin-4-yloxy)methyl]biphenyl-3-ylamine] |
| < 300 | CN1CCC(NC(c2cccc(OCC3CCCCC3)c2)c2nc3ccccc3s2)CC1 (stereo not shown) [Example 93, [benzothiazol-2-yl(3-cyclohexylmethoxyphenyl)methyl](1-methylpiperidin-4-yl)amine] |
| < 30 | CCCCCOc1cccc(C(NC2CCN(C)CC2)c2nc3ccccc3[nH]2)c1 (stereo not shown) [Example 95, [(1H-benzimidazol-2-yl)(3-pentyloxyphenyl)methyl](1-methylpiperidin-4-yl)amine] |
| < 300 | CN1CCC(OC(c2cccc(-c3cccc(CC#N)c3)c2)c2nc3ccccc3s2)CC1 (stereo not shown) [Example 98, {3′-[benzothiazol-2-yl(1-methylpiperidin-4-yloxy)methyl]biphenyl-3-yl}acetonitrile] |
| < 300 | COc1ccc(-c2cccc(C(OC3CCN(C)CC3)c3nc4ccccc4s3)c2)cc1 (stereo not shown) [Example 100, 2-[(4′-methoxybiphenyl-3-yl)(1-methylpiperidin-4-yloxy)methyl]benzothiazole] |
| < 30 | CN1CCC(NC(c2cccc(SCc3ccccc3)c2)c2nc3ccccc3[nH]2)CC1 (stereo not shown) [Example 104, [(1H-benzimidazol-2-yl)(3-benzylsulfanylphenyl)methyl](1-methylpiperidin-4-yl)amine] |
| < 300 | CC(=O)c1cccc(-c2cccc(C(OC3CCN(C)CC3)c3nc4ccccc4[nH]3)c2)c1 (stereo not shown) [Example 110, 1-{3′-[(1H-benzimidazol-2-yl)(1-methylpiperidin-4-yloxy)methyl]biphenyl-3-yl}ethanone] |
| < 30 | CSc1cccc(C(NC2CCN(C)CC2)c2nc3ccccc3s2)c1 (stereo not shown) [Example 111, [benzothiazol-2-yl(3-methylsulfanylphenyl)methyl](1-methylpiperidin-4-yl)amine] |
| < 1000 | C=CCOc1cccc(C(NC2CCN(C)CC2)c2nc3ccccc3[nH]2)c1 (stereo not shown) [Example 112, [(3-allyloxyphenyl)(1H-benzimidazol-2-yl)methyl](1-methylpiperidin-4-yl)amine] |
| < 30 | CN1CCC(NC(c2cccc(OCc3ccccc3F)c2)c2nc3ccccc3[nH]2)CC1 (stereo not shown) [Example 113, {(1H-benzimidazol-2-yl)[3-(2-fluorobenzyloxy)phenyl]methyl}(1-methylpiperidin-4-yl)amine] |

More lines, now with the values behind:

| SMILES | Ki or IC50 activity class [nM] |
| --- | --- |
| CN1CCC(OC(c2cccc(Br)c2)c2nc3ccccc3[nH]2)CC1 (stereo not shown) [Example 78, 2-[(3-bromophenyl)(1-methylpiperidin-4-yloxy)methyl]-1H-benzimidazole] | < 300 |
| CN1CCC(OC(c2cccc(-c3cccc(N)c3)c2)c2nc3ccccc3s2)CC1 (stereo not shown) [Example 79, 3′-[benzothiazol-2-yl(1-methylpiperidin-4-yloxy)methyl]biphenyl-3-ylamine] | < 300 |
| CN1CCC(NC(c2cccc(Br)c2)c2nc3ccccc3s2)CC1 (stereo not shown) [Example 82, [benzothiazol-2-yl(3-bromophenyl)methyl](1-methylpiperidin-4-yl)amine] | < 300 |
| Cc1cccc(C(NC2CCN(C)CC2)c2nc3ccccc3[nH]2)c1 (stereo not shown) [Example 84, [(1H-benzimidazol-2-yl)(m-tolyl)methyl](1-methylpiperidin-4-yl)amine] | < 1000 |
| CC(C)Oc1cccc(C(NC2CCN(C)CC2)c2nc3ccccc3s2)c1 (stereo not shown) [Example 88, [benzothiazol-2-yl(3-isopropoxyphenyl)methyl](1-methylpiperidin-4-yl)amine] | < 30 |
| CN1CCC(OC(c2cccc(-c3cccnc3)c2)c2nc3ccccc3[nH]2)CC1 (stereo not shown) [Example 89, 2-[(1-methylpiperidin-4-yloxy)(3-pyridin-3-ylphenyl)methyl]-1H-benzimidazole] | < 300 |
| CCCCOc1cccc(C(NC2CCN(C)CC2)c2nc3ccccc3s2)c1 (stereo not shown) [Example 91, [benzothiazol-2-yl(3-butoxyphenyl)methyl](1-methylpiperidin-4-yl)amine] | < 30 |
| CCCCOc1cccc(C(OC2CCN(C)CC2)c2nc3ccccc3s2)c1 (stereo not shown) [Example 92, 2-[(3-butoxyphenyl)(1-methylpiperidin-4-yloxy)methyl]benzothiazole] | < 300 |
| COc1ccccc1-c1cccc(C(OC2CCN(C)CC2)c2nc3ccccc3s2)c1 (stereo not shown) [Example 96, 2-[(2′-methoxybiphenyl-3-yl)(1-methylpiperidin-4-yloxy)methyl]benzothiazole] | < 300 |
| CN1CCC(OC(c2cccc(-c3cccc([N+](=O)[O-])c3)c2)c2nc3ccccc3s2)CC1 (stereo not shown) [Example 97, 2-[(1-methylpiperidin-4-yloxy)(3′-nitrobiphenyl-3-yl)methyl]benzothiazole] | < 300 |
| COc1cccc(-c2cccc(C(OC3CCN(C)CC3)c3nc4ccccc4s3)c2)c1 (stereo not shown) [Example 99, 2-[(3′-methoxybiphenyl-3-yl)(1-methylpiperidin-4-yloxy)methyl]benzothiazole] | < 300 |
| CN1CCC(NC(c2cccc(OCc3ccccc3)c2)c2nc3ccccc3s2)CC1 (stereo not shown) [Example 101, [benzothiazol-2-yl(3-benzyloxyphenyl)methyl](1-methylpiperidin-4-yl)amine] | < 30 |
| CN1CCC(NC(c2cccc(-c3ccccc3)c2)c2nc3ccccc3s2)CC1 (stereo not shown) [Example 102, (benzothiazol-2-ylbiphenyl-3-ylmethyl)(1-methylpiperidin-4-yl)amine] | < 30 |
| CN1CCC(NC(c2cccc(OCc3ccc(F)cc3)c2)c2nc3ccccc3[nH]2)CC1 (stereo not shown) [Example 103, {(1H-benzimidazol-2-yl)[3-(4-fluorobenzyloxy)phenyl]methyl}(1-methylpiperidin-4-yl)amine] | < 300 |
| CN1CCC(NC(c2cccc(OCc3cccc(F)c3)c2)c2nc3ccccc3[nH]2)CC1 (stereo not shown) [Example 105, {(1H-benzimidazol-2-yl)[3-(3-fluorobenzyloxy)phenyl]methyl}(1-methylpiperidin-4-yl)amine] | < 30 |
| CN1CCC(NC(c2cccc(OCCOc3ccccc3)c2)c2nc3ccccc3[nH]2)CC1 (stereo not shown) [Example 106, {(1H-benzimidazol-2-yl)[3-(2-phenoxyethoxy)phenyl]methyl}(1-methylpiperidin-4-yl)amine] | < 300 |
| CN1CCC(NC(c2cccc(SCc3ccccc3)c2)c2nc3ccccc3s2)CC1 (stereo not shown) [Example 107, [benzothiazol-2-yl(3-benzylsulfanylphenyl)methyl](1-methylpiperidin-4-yl)amine] | < 30 |
| CC(=O)c1ccc(-c2cccc(C(OC3CCN(C)CC3)c3nc4ccccc4[nH]3)c2)cc1 (stereo not shown) [Example 108, 1-{3′-[(1H-benzimidazol-2-yl)(1-methylpiperidin-4-yloxy)methyl]biphenyl-4-yl}ethanone] | < 300 |
| CN1CCC(OC(c2cccc(-c3cccc(F)c3)c2)c2nc3ccccc3[nH]2)CC1 (stereo not shown) [Example 109, 2-[(3′-fluoro-biphenyl-3-yl)(1-methylpiperidin-4-yloxy)methyl]-1H-benzimidazole] | < 300 |
| CN1CCC(OC(c2cccc(-c3ccc(F)cc3)c2)c2nc3ccccc3[nH]2)CC1 (stereo not shown) [Example 115, 2-[(4′-fluorobiphenyl-3-yl)(1-methylpiperidin-4-yloxy)methyl]-1H-benzimidazole] | < 300 |
| CSc1cccc(-c2cccc(C(OC3CCN(C)CC3)c3nc4ccccc4[nH]3)c2)c1 (stereo not shown) [Example 116, 2-[(1-methylpiperidin-4-yloxy)(3′-methylsulfanylbiphenyl-3-yl)methyl]-1H-benzimidazole] | < 300 |
| CN1CCC(OC(c2cccc(-c3ccccc3Cl)c2)c2nc3ccccc3[nH]2)CC1 (stereo not shown) [Example 121, 2-[(2′-Chlorobiphenyl-3-yl)(1-methylpiperidin-4-yloxy)methyl]-1H-benzimidazole] | < 300 |
| CN1CCC(OC(c2cccc(-c3ccc(Cl)c(Cl)c3)c2)c2nc3ccccc3[nH]2)CC1 (stereo not shown) [Example 122, 2-[(3′,4′-dichlorobiphenyl-3-yl)(1-methylpiperidin-4-yloxy)methyl]-1H-benzimidazole] | < 300 |
